Source: PMC5925751 (American journal of hematology, 2017)
Values joined by “and” are separate entries in the source; they are usually repeats but may differ in a detail not shown here. Identical values can stand only once.

Experiments:
AML blasts = conditions: cited from earlier work
patients with AML [1] = assay: Safety and tolerability; type: in vivo
[2] = Pharmacokinetics, plasma AMG 900 by LC-MS/MS after multiple oral administrations; type: in vivo; conditions: human
[3] = tested on: phosphorylated histone H3 (pHH3) in peripheral blood leukemic blasts; assay: Pharmacodynamics: flow cytometric pHH3 assay in whole blood; type: in vivo, human; conditions: as early as 1 hour after treatment; regardless of dosing schedule; transient
patients with AML [4] = assay: Efficacy: objective response by Cheson response criteria; type: in vivo, human
[5] = Total, all doses and schedules (n = 35)

COc1cc(Nc2ncc3c(n2)-c2ccc(Cl)cc2C(c2c(F)cccc2OC)=NC3)ccc1C(=O)O [MLN8237]
apoptosis of AML blasts (AML blasts): induced apoptosis
proliferation of AML blasts (AML blasts): inhibited proliferation

Cc1csc(-c2nnc(Nc3ccc(Oc4ncccc4-c4ccnc(N)n4)cc3)c3ccccc23)c1 [AMG 900, N-(4-(3-(2-aminopyrimidin-4-yl)pyridin-2-yloxy)phenyl)-4-(4-methylthiophen-2-yl)p hthalazin-1-amine]
Treatment-related adverse events by grade: Fatal (patients with AML [1]; 15 mg, 4 days on/10 days off (n = 4)): 0 (0) n (%)
Treatment-related adverse events by grade: Fatal (patients with AML [1]; 25 mg, 4 days on/10 days off (n = 3)): 0 (0) n (%)
Treatment-related adverse events by grade: Fatal (patients with AML [1]; 30 mg, 7 days on/7 days off (n = 3)): 0 (0) n (%)
Treatment-related adverse events by grade: Fatal (patients with AML [1]; 40 mg, 4 days on/10 days off (n = 7)): 1 (14) n (%)
Treatment-related adverse events by grade: Fatal (patients with AML [1]; 40 mg, 7 days on/7 days off (n = 4)): 0 (0) n (%)
Treatment-related adverse events by grade: Fatal (patients with AML [1]; 50 mg, 7 days on/7 days off (n = 6)): 1 (17) n (%)
Treatment-related adverse events by grade: Fatal (patients with AML [1]; 60 mg, 4 days on/10 days off (n = 4)): 0 (0) n (%)
Treatment-related adverse events by grade: Fatal (patients with AML [1]; 80 mg, 4 days on/10 days off (n = 3)): 0 (0) n (%)
Treatment-related adverse events by grade: Fatal (patients with AML [1]; 100 mg, 4 days on/10 days off (n = 1)): 0 (0) n (%)
Grade ≥ 3 treatment-related adverse events: Device-related infection (patients with AML [1]; [5]): 2 (6) n (%)
Grade ≥ 3 treatment-related adverse events: Septic shock (patients with AML [1]; [5]): 2 (6) n (%)
Treatment-related adverse events by grade: Fatal (patients with AML [1]; [5]): 2 (6) n (%)
Treatment-related adverse events, all grades: Mucosal inflammation (patients with AML [1]; [5]): 4 (11) n (%)
Treatment-related adverse events, all grades: Nausea (patients with AML [1]; [5]): 11 (31) n (%)
Treatment-related adverse events, all grades: Rash (patients with AML [1]; [5]): 4 (11) n (%)
Treatment-related adverse events, all grades: Vomiting (patients with AML [1]; [5]): 6 (17) n (%)
maximum tolerated dose (MTD) (patients with AML [1]; either dosing schedule): not formally reached
Any treatment-related adverse events (patients with AML [1]; human, in vivo): 30 (86) n (%)
Grade ≥ 3 treatment-related adverse events: Diarrhea (patients with AML [1]; human, in vivo): 2 (6) n (%)
Grade ≥ 3 treatment-related adverse events: Febrile neutropenia (patients with AML [1]; human, in vivo): 10 (29) n (%)
Grade ≥ 3 treatment-related adverse events: Pancytopenia (patients with AML [1]; human, in vivo): 2 (6) n (%)
Grade ≥ 3 treatment-related adverse events: Thrombocytopenia (patients with AML [1]; human, in vivo): 2 (6) n (%)
Treatment-related adverse events by grade: Grade ≥ 3 (patients with AML [1]; human, in vivo): 16 (46) n (%)
Treatment-related adverse events by grade: Grade ≥ 4 (patients with AML [1]; human, in vivo): 5 (14) n (%)
Treatment-related adverse events, all grades: Alopecia (patients with AML [1]; human, in vivo): 5 (14) n (%)
Treatment-related adverse events, all grades: Diarrhea (patients with AML [1]; human, in vivo): 10 (29) n (%)
Treatment-related adverse events, all grades: Dyspnea (patients with AML [1]; human, in vivo): 4 (11) n (%)
Treatment-related adverse events, all grades: Epistaxis (patients with AML [1]; human, in vivo): 4 (11) n (%)
Treatment-related adverse events, all grades: Fatigue (patients with AML [1]; human, in vivo): 8 (23) n (%)
Treatment-related adverse events, all grades: Febrile neutropenia (patients with AML [1]; human, in vivo): 10 (29) n (%)
median (range) duration of febrile neutropenia (patients with AML [1]; human, in vivo): 8 (1, 45) days
serious treatment-related AE: device-related infection (patients with AML [1]; human, in vivo): 6%
serious treatment-related AE: febrile neutropenia (patients with AML [1]; human, in vivo): 26%
serious treatment-related AE: septic shock (patients with AML [1]; human, in vivo): 6%
treatment-related AE, any grade: alopecia (patients with AML [1]; human, in vivo): 14%
treatment-related AE, any grade: nausea (patients with AML [1]; human, in vivo): 31%
treatment-related AE, any grade: vomiting (patients with AML [1]; human, in vivo): 17%
tolerability of highest dose evaluated (patients with AML [1]; in vivo): tolerated
patients with serious treatment-related AEs (patients with AML [1]; overall, 11 patients): 31%
patients who discontinued AMG 900 treatment due to AEs (patients with AML [1]; overall, five patients): 14%
patients who died during the study (patients with AML [1]; overall, nine patients, two deaths considered treatment-related): 26%
AUC(0-t) ([2]; 15 mg): 1380 ng·h/mL
Cmax ([2]; 15 mg): 501 ng/mL
AUC(0-t) ([2]; 25 mg): 2740 ng·h/mL
Cmax ([2]; 25 mg): 951 ng/mL
AUC(0-t) ([2]; 40 mg): 4360 ng·h/mL
Cmax ([2]; 40 mg): 1600 ng/mL
AUC(0-t) ([2]; 60 mg): 5620 ng·h/mL
Cmax ([2]; 60 mg): 1890 ng/mL
AUC(0-t) ([2]; 80 mg): 3210 ng·h/mL
Cmax ([2]; 80 mg): 1430 ng/mL
AUC(0-t) ([2]; 100 mg): 10200 ng·h/mL
Cmax ([2]; 100 mg): 3670 ng/mL
inhibition of pHH3 expression in whole blood [3]: clear inhibition of pHH3 expression
objective response rate (patients with AML [4]; all patients, any dose, either schedule, 80% confidence interval: 3%, 18%): 9%
duration of response (patients with AML [4]; individual values of the three responders, 1.5 months is a censored observation): 3 months and 1.5 months and < 1 months
